Values after ≈ are worked out from the molar mass of the structure shown. Where two headings read alike, the source gives them in different places.
Key:
[1] = Phase-solubility test of PTX in GA / ethanol-water solutions; assay type: physicochemical
Experimental: The phase-solubility test was performed with a previously reported method. An excess quantity of PTX was taken into clean and dry vials containing 1 mL of various concentrations of GA solutions ([…]). […] Ultimately, the samples were filtered through 0.45 μm filters and the concentrations of PTX were detected by high performance liquid chromatography (HPLC; LC-20A, Shimadzu, Japan) (see Section 3.3.6.). All tests were repeated at least three times.

[2] = parameters: method as in PMID 11879753; settings: cited from earlier work
[3] = parameters: method as in PMID 7939764; settings: cited from earlier work
cell membranes = tested on: cell membranes; parameters: method as in PMID 24870200; settings: cited from earlier work
[4] = parameters: method as in PMID 19929808; settings: cited from earlier work
P-gp = tested on: P-gp; parameters: method as in PMID 16904803; settings: in vitro study; cited from earlier work
CYP3A = tested on: CYP3A; parameters: method as in PMID 12584850; settings: rat liver microsomes; cited from earlier work
CYP1A1 = tested on: CYP1A1; parameters: method as in PMID 12584850; settings: rat liver microsomes; cited from earlier work
CYP2E1 = tested on: CYP2E1; parameters: method as in PMID 12584850; settings: rat liver microsomes; cited from earlier work

solubility at 48 h ([1]; 10 mM GA solution in water, aqueous with cosolvent or surfactant or cyclodextrin, thermodynamic from solid, water, in the presence of 10 mM GA, 25 °C, read-out: solubility of PTX) [µg/mL]	solubility at 48 h ([1]; 7.5% ethanol in water with 10 mM GA, 25 °C, aqueous with cosolvent or surfactant or cyclodextrin, thermodynamic from solid, optimal ethanol percentage (7.5%) with GA (10 mM), read-out: PTX solubility) [µg/mL]	solubility increase ([1]; 7.5% ethanol with GA vs solubility of PTX in water)	solubility at 48 h ([1]; ethanol-water mixtures without GA, 0%, 5%, 7.5%, 10% and 25% ethanol in water, without GA, read-out: solubility of PTX in different percentages of ethanol) [µg/mL]	solubility at 48 h ([1]; water, absence of GA, 25 °C, read-out: solubility of PTX in water) [µg/mL]	SMILES	aqueous solubility [2] [µg/mL]	oral bioavailability [3] [%]	increase of the permeability of cell membranes (cell membranes)	critical micelle concentration [4]	inhibition of the function of P-gp (P-gp)	inhibitor of CYP3A (CYP3A)	inhibitor of CYP1A1 (CYP1A1)	inhibitor of CYP2E1 (CYP2E1)
124	823 ± 14.4 (≈ 964 µM)	more than 1,000 fold	≤ 30	~0.67 (≈ 0.785 µM)	CC(=O)O[C@H]1C(=O)[C@@]2(C)[C@H]([C@H](OC(=O)c3ccccc3)[C@]3(O)C[C@H](OC(=O)[C@H](O)[C@@H](NC(=O)c4ccccc4)c4ccccc4)C(C)=C1C3(C)C)[C@]1(OC(C)=O)CO[C@@H]1C[C@@H]2O [PTX, Paclitaxel]	< 1	< 2	–	–	–	–	–	–
–	–	–	–	–	CC1(C)[C@@H](O[C@H]2O[C@H](C(=O)O)[C@@H](O)[C@H](O)[C@H]2O[C@@H]2O[C@H](C(=O)O)[C@@H](O)[C@H](O)[C@H]2O)CC[C@]2(C)[C@H]3C(=O)C=C4[C@@H]5C[C@@](C)(C(=O)O)CC[C@]5(C)CC[C@@]4(C)[C@]3(C)CC[C@@H]12 [GA, Glycyrrhizic acid]	–	–	about 60%	10^−3 M	inhibited the function of P-gp	inhibitor	inhibitor	inhibitor

Source: PMC6272134, “Bioavailability Enhancement of Paclitaxel via a Novel Oral Drug Delivery System: Paclitaxel-Loaded Glycyrrhizic Acid Micelles” (Molecules, 2015)
